Measurements published in publication PMC8838411, “Disrupting the MAD2L2-Rev1 Complex Enhances Cell Death upon DNA Damage” (Molecules, 2022).

What was measured:
GST-MAD2L2 [1] = target: T1, GST-MAD2L2 (Homo sapiens, UniProt Q9UI95); experiment: field-effect biosensing (FEB, Agile R100), immobilised protein; format: binding; details: PBS; compound 1-50 μM; Hill fit or kon/koff; unreliable
T1 construct: GST fusion, expressed in E. coli BL21 Star, standard GST purification, amine-immobilised on graphene chip
T1 sequence (Q9UI95 whole entry, the tested form may be a part): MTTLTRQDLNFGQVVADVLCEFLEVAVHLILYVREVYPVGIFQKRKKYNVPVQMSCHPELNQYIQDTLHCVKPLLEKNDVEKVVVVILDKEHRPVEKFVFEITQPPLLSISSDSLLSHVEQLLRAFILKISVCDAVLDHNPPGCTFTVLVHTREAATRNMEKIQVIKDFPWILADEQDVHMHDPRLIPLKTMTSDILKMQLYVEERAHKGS

GST-MAD2L2 [2] = target: T1, GST-MAD2L2; experiment: as above; format: binding; details: PBS; compound 1-50 μM; Hill fit or kon/koff
[3] = target: T2, MAD2L2-Rev1 complex (myc-MAD2L2 and YFP-Rev1) (Homo sapiens, UniProt Q9UI95); experiment: co-immunoprecipitation (GFP-Trap), immunoblot; format: cell-based; details: HEK293 cells, 50 μM compound, 24 h
T2 construct: stoichiometry from the docking model; with DNA repair protein REV1
T2 sequence (Q9UI95 whole entry): as the sequence (Q9UI95 whole entry, the tested form may be a part) above
T2 sequence (Q9UBZ9 whole entry partner): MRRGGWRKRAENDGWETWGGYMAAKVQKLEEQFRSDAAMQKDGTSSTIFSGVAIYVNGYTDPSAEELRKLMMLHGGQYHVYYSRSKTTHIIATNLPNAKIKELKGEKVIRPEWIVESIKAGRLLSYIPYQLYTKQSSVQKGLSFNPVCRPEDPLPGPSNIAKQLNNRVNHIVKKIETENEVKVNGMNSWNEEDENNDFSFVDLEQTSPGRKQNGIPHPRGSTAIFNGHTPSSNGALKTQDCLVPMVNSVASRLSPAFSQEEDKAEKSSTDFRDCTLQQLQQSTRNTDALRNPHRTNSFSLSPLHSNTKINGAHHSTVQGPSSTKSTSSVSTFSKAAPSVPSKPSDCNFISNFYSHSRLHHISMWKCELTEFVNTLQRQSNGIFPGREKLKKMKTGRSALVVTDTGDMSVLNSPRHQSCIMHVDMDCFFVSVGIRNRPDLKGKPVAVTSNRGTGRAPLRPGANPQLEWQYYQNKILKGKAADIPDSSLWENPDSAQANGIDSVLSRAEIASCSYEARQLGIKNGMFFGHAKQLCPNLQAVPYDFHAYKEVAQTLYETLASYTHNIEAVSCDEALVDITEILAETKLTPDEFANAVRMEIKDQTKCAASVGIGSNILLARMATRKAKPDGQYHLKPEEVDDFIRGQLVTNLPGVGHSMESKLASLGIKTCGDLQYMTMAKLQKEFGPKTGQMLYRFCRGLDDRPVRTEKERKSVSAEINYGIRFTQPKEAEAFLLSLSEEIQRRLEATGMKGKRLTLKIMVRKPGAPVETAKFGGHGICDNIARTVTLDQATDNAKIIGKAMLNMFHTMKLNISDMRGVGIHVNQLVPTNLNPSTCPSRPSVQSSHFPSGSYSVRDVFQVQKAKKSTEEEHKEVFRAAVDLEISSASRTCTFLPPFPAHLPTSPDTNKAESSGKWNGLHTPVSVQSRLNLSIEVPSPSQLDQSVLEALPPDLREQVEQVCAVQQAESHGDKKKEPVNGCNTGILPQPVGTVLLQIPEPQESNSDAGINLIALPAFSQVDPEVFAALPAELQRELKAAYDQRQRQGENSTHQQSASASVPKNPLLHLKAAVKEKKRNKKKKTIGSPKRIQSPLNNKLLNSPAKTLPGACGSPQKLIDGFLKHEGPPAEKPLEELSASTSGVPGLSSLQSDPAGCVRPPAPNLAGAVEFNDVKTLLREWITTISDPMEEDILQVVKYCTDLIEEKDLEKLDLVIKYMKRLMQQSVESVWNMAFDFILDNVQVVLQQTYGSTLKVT

kD (GST-MAD2L2 [1])	Kd (GST-MAD2L2 [2])	% reduction of MAD2L2-Rev1 binding at 50 μM [3]	Substance
310.8 ± 32.96 µM	–	–	ZINC97017995 [c#2]
–	44.9 ± 2.06 µM	~ 80%	ZINC25496030 [c#3]
